What was measured:
Type in all cases: cell-based, human
[1] = system: iPSC-CRISPR dCas9 SAM cells; test: minimum inhibitory concentration (MIC) assay for geneticin
Description: The lentiviral vector backbone encodes geneticin as an antibiotic selection marker.

[2] = system: EPO; test: qPCR screening of EPO sgRNA lentiviruses; details: day 4 after transduction, unconcentrated lentivirus supernatant
Procedure: cDNA was synthesized from 1 μg of RNA using the Maxima First Strand cDNA Synthesis Kit (ThermoFisher). Quantitative real-time polymerase chain reaction (qPCR) was carried out using QuantStudio 3 Real-Time PCR System (ThermoFisher). The samples were run in biological triplicates and expression levels normalized using the geometric mean of the “housekeeping” gene: glyceraldehyde phosphate dehydrogenase (GAPDH).
(§1) For this, four different sgRNAs were designed for each of the growth factors/cytokines and constructed lentiviral vectors as mentioned previously (Table 4). For testing the activity of EPO expression, the lentiviruses of four different sgRNAs were produced and screened for the best performing guide in activating EPO expression. The iPSC-CRISPR dCas9 SAM cells were transduced with the unconcentrated lentivirus supernatant of the four sgRNAs individually and tested for their EPO gene expression using qPCR analysis on day 4 cells after transduction. […] Further, the spent media of the cells were collected from two wells of a 12-well plate on days 3 and 4 transduced with EPO_g2 and was stored in −20° C. Next, an Amicon Ultra-15 centrifugal filter was used with 10KDa cut-off membrane (EPO molecular weight: 21 KDa) to concentrate the EPO protein and the retentate washed with 1× PBS was used for ELISA assay.

[3] = system: EPO; test: EPO ELISA of spent medium after endogenous EPO activation; details: iPSC-CRISPR dCas9 SAM cells, spent medium of days 3 and 4 pooled, concentrated with 10 KDa filter, retentate, commercial ELISA
Procedure: FIG. 14 Endogenous activation of erythropoietin (EPO) growth factor in human iPSC-dCas9 SAM cells. (a) qPCR data collected after 4 days of EPO sgRNAs lentivirus (unconcentrated) transduction. (b) EPO ELISA was carried out using two commercially available sources to quantify the CRISPRa EPO. For this, the spent mTesR medium of cells transduced with EPO_g2 were collected on days 3 and 4, the pooled medium was concentrated using Amicon Ultra-15 centrifugal filter (10 KDa cutoff membrane) since the EPO MW is 21 KDa. The retentate was used for quantification using ELISA. According to the standards, the EPO secreted in the medium is in the range of 47-51 IU/mL of EPO.
as §1, with “Next, an Amicon Ultra-15 centrifugal filter was used with 10KDa cut-off membrane (EPO molecular weight: 21 KDa) to concentrate the EPO protein and the retentate washed with 1× PBS was used for ELISA assay.” left out

Compound	MIC of geneticin [1]	EPO gene expression compared to non-transduced control cells [2]	EPO secreted in the medium [3]
CN[C@@H]1[C@@H](O)[C@@H](O[C@@H]2[C@@H](O)[C@H](O[C@H]3O[C@H]([C@@H](C)O)[C@@H](O)[C@H](O)[C@H]3N)[C@@H](N)C[C@H]2N)OC[C@]1(C)O [geneticin]	100 µg/mL	–	–
EPO_g2: sgRNA for EPO, guide sequence TGTGCGTGAGGGGTCGCCAG (listed as DNA, chemistry not given here)	–	higher EPO gene expression	47-51 IU/mL

— US20220145249A1, “A Method of Altering a Differentiation Status of a Cell” (Agency for Science, Technology and Research, priority 2019, published 2022)
